Test results from ChEMBL document CHEMBL5678818, “Discovery of potent SOS1 inhibitors that block RAS activation via disruption of the RAS-SOS1 interaction” (Proc Natl Acad Sci U S A, 2019).

What was measured:
[1] = target: T1, Serine/threonine-protein kinase DCLK2 (Homo sapiens) (UniProt Q8N568); assay: Inhibition of DCAMKL2 (unknown origin) assessed as residual activity at 100 nM by KINOMEscan analysis relative to control
T1 sequence (whole entry): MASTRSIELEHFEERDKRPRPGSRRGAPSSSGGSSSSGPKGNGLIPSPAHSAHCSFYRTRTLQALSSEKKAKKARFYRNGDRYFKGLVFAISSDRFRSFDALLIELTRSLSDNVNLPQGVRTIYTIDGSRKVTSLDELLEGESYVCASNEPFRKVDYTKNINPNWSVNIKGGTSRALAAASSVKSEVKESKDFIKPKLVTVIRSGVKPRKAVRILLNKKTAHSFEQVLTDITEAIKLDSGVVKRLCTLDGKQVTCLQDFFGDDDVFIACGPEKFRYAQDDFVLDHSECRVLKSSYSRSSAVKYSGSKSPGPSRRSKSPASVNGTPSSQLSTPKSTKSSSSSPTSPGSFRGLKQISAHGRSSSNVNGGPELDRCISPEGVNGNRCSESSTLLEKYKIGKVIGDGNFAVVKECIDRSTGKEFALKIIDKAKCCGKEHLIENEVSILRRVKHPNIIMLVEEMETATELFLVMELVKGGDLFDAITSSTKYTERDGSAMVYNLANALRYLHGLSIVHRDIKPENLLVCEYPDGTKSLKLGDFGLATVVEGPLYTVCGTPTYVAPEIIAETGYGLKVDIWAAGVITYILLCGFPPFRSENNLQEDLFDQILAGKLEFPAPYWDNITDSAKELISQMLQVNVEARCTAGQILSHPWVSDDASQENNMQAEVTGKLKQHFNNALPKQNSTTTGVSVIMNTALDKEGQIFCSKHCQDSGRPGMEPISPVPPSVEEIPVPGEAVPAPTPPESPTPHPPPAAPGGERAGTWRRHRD

[2] = target: Serine/threonine-protein kinase MARK1 (Homo sapiens) (UniProt Q9P0L2); assay: Inhibition of MARK1 (unknown origin) assessed as residual activity at 100 nM by KINOMEscan analysis relative to control
[3] = target: Serine/threonine-protein kinase PLK2 (Homo sapiens) (UniProt Q9NYY3); assay: Inhibition of PLK2 (unknown origin) assessed as residual activity at 100 nM by KINOMEscan analysis relative to control
Sequence of Serine/threonine-protein kinase PLK2 (Homo sapiens) (Q9NYY3 whole entry, looked up): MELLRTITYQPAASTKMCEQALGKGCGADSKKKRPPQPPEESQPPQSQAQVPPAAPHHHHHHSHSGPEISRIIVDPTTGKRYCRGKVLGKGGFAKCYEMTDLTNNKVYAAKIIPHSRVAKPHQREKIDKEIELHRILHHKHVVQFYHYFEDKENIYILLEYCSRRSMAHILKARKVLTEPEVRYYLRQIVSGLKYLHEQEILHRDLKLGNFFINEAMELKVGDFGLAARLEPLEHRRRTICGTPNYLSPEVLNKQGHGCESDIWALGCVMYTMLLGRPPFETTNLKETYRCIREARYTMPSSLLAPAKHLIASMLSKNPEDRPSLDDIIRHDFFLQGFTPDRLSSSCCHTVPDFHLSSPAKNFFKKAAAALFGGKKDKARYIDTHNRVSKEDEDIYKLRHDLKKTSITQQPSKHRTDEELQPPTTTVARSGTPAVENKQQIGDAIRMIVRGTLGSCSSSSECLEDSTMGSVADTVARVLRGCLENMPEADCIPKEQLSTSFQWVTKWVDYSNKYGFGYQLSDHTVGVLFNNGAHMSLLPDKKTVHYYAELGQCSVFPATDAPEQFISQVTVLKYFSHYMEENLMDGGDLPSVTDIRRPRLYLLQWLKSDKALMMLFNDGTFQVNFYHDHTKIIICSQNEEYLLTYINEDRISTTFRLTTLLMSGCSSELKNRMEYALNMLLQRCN

[4] = target: Rho-associated protein kinase 2 (Homo sapiens) (UniProt O75116); assay: Inhibition of ROCK2 (unknown origin) assessed as residual activity at 100 nM by KINOMEscan analysis relative to control
[5] = target: Serine/threonine-protein kinase MRCK alpha (Homo sapiens) (UniProt Q5VT25); assay: Inhibition of MRCKA (unknown origin) assessed as residual activity at 100 nM by KINOMEscan analysis relative to control
Sequence of Serine/threonine-protein kinase MRCK alpha (Homo sapiens) (Q5VT25 whole entry, canonical isoform): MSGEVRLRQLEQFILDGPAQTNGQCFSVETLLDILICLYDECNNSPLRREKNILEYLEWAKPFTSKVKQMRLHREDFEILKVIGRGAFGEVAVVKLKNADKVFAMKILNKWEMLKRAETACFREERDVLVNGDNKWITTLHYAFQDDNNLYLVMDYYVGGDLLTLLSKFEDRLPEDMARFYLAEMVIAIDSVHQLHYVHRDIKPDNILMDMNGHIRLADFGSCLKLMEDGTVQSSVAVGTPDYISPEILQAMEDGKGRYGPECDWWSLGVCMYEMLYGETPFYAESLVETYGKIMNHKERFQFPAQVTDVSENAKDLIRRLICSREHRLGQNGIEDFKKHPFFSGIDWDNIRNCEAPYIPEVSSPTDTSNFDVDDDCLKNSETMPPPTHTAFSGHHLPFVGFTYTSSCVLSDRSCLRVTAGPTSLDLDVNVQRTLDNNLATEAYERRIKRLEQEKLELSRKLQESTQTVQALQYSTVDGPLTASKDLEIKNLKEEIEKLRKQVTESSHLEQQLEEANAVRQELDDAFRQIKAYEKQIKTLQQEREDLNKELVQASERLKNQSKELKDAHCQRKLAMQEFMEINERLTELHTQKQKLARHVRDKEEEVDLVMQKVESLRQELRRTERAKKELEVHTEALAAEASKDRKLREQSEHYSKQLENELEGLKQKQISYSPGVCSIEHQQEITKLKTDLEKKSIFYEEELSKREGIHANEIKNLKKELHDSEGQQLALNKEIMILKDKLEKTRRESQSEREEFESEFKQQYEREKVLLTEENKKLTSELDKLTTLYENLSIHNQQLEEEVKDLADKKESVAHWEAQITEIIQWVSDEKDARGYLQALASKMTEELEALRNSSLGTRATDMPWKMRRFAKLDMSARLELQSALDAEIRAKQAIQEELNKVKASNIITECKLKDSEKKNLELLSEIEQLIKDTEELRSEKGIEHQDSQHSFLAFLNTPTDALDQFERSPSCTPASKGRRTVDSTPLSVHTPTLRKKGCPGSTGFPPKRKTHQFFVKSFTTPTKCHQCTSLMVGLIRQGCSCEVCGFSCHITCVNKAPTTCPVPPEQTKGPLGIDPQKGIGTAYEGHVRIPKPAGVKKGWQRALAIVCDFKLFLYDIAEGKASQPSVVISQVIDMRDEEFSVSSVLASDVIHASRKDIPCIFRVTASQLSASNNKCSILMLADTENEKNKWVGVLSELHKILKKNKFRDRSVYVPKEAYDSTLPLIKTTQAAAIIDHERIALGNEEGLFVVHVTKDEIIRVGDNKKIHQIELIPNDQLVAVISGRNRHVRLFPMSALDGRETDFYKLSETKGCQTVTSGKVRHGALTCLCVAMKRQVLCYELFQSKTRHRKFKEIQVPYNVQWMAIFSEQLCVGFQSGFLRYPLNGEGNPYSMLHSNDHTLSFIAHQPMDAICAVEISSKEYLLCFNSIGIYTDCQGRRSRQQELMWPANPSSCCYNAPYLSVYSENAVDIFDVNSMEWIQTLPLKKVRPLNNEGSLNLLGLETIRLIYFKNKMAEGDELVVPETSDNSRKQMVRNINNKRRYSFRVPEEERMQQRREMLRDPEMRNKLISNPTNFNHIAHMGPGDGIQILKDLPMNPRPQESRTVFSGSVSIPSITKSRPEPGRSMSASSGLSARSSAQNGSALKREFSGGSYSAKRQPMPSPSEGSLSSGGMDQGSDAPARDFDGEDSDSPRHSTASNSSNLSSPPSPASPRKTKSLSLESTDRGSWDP

[6] = target: Phosphatidylinositol 4,5-bisphosphate 3-kinase catalytic subunit gamma isoform (Homo sapiens) (UniProt P48736); assay: Inhibition of PIK3CG (unknown origin) assessed as residual activity at 100 nM by KINOMEscan analysis relative to control
[7] = system: Proto-oncogene tyrosine-protein kinase receptor Ret (Homo sapiens), P07949 [V804M]; assay: Inhibition of RET V804M mutant (unknown origin) assessed as residual activity at 100 nM by KINOMEscan analysis relative to control
Sequence of Proto-oncogene tyrosine-protein kinase receptor Ret (Homo sapiens), P07949 [V804M] (P07949 whole entry V804M): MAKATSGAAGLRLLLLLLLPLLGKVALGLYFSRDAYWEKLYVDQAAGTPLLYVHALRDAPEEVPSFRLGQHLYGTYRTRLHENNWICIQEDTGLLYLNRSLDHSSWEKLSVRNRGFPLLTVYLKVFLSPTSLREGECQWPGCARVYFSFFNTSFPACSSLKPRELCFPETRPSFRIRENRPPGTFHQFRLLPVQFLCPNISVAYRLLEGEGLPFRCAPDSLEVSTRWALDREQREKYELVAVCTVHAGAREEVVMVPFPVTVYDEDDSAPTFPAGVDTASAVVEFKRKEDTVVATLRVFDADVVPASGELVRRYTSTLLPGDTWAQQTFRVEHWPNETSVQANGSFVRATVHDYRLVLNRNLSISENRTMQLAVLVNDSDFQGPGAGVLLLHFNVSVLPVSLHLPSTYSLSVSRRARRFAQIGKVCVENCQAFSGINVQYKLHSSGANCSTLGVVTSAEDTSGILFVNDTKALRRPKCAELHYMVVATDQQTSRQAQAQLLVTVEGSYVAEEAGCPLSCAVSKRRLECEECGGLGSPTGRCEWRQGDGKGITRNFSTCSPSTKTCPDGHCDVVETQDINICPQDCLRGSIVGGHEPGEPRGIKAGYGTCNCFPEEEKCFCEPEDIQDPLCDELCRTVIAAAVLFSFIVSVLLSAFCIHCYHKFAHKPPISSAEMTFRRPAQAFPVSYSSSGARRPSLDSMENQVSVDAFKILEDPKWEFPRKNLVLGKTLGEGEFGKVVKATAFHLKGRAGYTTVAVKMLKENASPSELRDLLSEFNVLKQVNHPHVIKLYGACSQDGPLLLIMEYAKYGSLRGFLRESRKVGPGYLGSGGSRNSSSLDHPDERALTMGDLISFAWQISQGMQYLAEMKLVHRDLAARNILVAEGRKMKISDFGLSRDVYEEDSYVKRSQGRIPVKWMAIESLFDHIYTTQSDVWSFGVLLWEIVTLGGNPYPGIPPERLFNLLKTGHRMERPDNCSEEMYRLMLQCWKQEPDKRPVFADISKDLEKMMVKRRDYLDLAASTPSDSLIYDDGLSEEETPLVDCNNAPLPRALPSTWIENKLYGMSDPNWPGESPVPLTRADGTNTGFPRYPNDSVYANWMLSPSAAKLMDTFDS

[8] = target: STE20-like serine/threonine-protein kinase (Homo sapiens) (UniProt Q9H2G2); assay: Inhibition of SLK (unknown origin) assessed as residual activity at 100 nM by KINOMEscan analysis relative to control
Sequence of STE20-like serine/threonine-protein kinase (Homo sapiens) (Q9H2G2 whole entry, looked up): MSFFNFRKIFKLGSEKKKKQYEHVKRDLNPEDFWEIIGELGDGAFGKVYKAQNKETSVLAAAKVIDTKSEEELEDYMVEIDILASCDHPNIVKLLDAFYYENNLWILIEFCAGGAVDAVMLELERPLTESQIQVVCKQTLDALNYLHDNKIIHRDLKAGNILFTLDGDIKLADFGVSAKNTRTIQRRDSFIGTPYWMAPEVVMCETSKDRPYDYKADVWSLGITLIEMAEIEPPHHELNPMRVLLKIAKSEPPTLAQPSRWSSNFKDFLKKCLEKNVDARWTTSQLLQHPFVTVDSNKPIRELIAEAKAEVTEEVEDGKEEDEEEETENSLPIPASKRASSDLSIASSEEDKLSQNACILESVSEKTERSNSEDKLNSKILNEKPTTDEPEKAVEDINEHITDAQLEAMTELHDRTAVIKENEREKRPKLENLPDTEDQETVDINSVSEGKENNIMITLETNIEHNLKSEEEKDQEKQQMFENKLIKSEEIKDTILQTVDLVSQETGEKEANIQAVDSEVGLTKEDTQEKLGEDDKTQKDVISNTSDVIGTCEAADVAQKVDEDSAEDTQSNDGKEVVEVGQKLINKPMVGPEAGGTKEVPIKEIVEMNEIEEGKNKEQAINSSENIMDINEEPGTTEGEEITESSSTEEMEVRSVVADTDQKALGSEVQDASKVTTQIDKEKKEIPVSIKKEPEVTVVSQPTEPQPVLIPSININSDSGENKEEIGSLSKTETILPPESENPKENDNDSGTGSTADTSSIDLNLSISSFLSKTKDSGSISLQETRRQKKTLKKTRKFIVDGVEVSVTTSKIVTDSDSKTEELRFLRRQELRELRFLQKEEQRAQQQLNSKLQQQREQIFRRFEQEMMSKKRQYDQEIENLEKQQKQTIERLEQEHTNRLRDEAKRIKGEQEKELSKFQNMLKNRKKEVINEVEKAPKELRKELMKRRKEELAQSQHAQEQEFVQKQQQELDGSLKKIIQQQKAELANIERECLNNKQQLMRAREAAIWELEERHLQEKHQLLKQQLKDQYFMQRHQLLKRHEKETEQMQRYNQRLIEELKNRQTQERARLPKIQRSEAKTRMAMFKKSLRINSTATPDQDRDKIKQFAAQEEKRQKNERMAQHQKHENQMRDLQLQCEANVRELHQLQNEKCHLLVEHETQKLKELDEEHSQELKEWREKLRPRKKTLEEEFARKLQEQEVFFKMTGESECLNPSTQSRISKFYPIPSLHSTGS

[9] = target: T2, Serine/threonine-protein kinase ICK (Homo sapiens) (UniProt Q9UPZ9); assay: Inhibition of ICK (unknown origin) assessed as residual activity at 100 nM by KINOMEscan analysis relative to control
T2 sequence (whole entry): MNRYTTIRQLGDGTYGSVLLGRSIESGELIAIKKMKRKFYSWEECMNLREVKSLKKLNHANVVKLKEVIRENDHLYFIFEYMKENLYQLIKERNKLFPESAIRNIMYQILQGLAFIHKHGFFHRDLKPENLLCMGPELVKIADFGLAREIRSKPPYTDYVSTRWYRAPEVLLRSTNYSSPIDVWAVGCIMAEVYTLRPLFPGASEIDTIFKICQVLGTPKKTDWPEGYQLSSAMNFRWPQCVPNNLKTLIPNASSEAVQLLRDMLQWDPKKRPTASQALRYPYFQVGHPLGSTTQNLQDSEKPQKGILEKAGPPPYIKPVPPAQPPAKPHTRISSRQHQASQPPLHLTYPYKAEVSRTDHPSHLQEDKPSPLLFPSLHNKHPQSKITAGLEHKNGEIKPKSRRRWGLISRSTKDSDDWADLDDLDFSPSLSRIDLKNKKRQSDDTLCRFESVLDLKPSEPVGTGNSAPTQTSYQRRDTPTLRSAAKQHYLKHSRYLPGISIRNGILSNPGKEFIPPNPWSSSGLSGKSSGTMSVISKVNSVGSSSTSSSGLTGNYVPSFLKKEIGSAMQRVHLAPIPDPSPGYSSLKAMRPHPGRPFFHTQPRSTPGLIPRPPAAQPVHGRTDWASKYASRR

[10] = target: T3, Calcium/calmodulin-dependent protein kinase type IV (Homo sapiens) (UniProt Q16566); assay: Inhibition of CAMK4 (unknown origin) assessed as residual activity at 100 nM by KINOMEscan analysis relative to control
T3 sequence (whole entry): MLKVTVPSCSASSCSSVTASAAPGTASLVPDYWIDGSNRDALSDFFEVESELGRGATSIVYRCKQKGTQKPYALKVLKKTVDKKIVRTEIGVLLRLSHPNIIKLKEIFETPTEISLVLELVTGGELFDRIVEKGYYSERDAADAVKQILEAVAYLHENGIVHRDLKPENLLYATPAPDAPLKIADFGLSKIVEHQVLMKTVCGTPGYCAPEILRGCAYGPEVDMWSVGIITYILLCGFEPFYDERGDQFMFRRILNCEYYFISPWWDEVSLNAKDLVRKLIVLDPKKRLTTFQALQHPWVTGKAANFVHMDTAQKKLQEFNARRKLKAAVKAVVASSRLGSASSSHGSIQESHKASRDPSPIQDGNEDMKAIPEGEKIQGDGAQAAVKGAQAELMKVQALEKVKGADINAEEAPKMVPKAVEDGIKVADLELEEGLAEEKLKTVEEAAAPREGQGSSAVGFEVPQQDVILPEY

**Q.** For COc1cc2ncnc(N[C@H](C)c3cccc4ccccc34)c2cc1OC, which Activity [1] is on record?
**A.** 82%

**Q.** And the Activity [2]?
**A.** 100%

**Q.** What about the Activity [3] of the same compound?
**A.** 92%

**Q.** What about the Activity [4] of the same compound?
**A.** 87%

**Q.** What about the Activity [5] of the same compound?
**A.** 14%

**Q.** And the Activity [6]?
**A.** 78%

**Q.** What about the Activity [7] of the same compound?
**A.** 100%

**Q.** And the Activity [8]?
**A.** 100%

**Q.** And the Activity [9]?
**A.** 90%

**Q.** And the Activity [10]?
**A.** 100%
